{"source": "patent US8012941B2", "about": "“Carba-nucleoside analogs for antiviral treatment” (Gilead Sciences, Inc., priority 2008, dated 2011)", "key": {"HCV replicon cells": {"tested_on": "HCV replicon cells", "test": "HCV EC50 determination: replicon cells, luciferase readout", "format": "cell-based", "conditions": "Hepatitis C virus, 72 h", "experimental": "Replicon cells were seeded in 96-well plates at a density of 8×10^3 cells per well in 100 μL of culture medium, excluding Geneticin. Compound was serially diluted in 100% DMSO and then added to the cells at a 1:200 dilution, achieving a final concentration of 0.5% DMSO and a total volume of 200 μL. Plates were incubated at 37° C. for 3 days, after which culture medium was removed and cells were lysed in lysis buffer provided by Promega's luciferase assay system. Following the manufacturer's instruction, 100 μL of luciferase substrate was added to the lysed cells and luciferase activity was measured in a TopCount luminometer."}, "HCV Δ21 NS5b polymerase": {"target": "T1, HCV Δ21 NS5b polymerase (Hepatitis C virus genotype 1b, UniProt Q9WMX2)", "T1 construct": "75 nM HCV Δ21 NS5b polymerase", "test": "HCV IC50 determination: NS5b polymerase assay", "format": "biochemical", "conditions": "triphosphates of the listed examples, 35° C., 90 min", "experimental": "Assay Protocol: NS5b polymerase assay (40 μL) was assembled by adding 28 μL polymerase mixture (final concentration: 50 mM Tris-HCl at pH 7.5, 10 mM KCL, 5 mM MgCl2, 1 mM DTT, 10 mM EDTA, 4 ng/μL of RNA template, and 75 nM HCV Δ21 NS5b polymerase) to assay plates followed by 4 μL of compound dilution. The polymerase and compound were pre-incubated at 35° C. for 10 minute before the addition of 8 μL of nucleotide substrate mixture (33P-α-labeled competing nucleotide at KM and 0.5 mM of the remaining three nucleotides). The assay plates were covered and incubated at 35° C. for 90 min. Reactions were then filtered through 96-well DEAE-81 filter plates via vacuum. The filter plates were then washed under vacuum with multiple volumes of 0.125 M NaHPO4, water, and ethanol to remove unincorporated label. Plates were then counted on TopCount to assess the level of product synthesis over background controls. The IC50 value was determined using Prism fitting program."}, "[1]": {"conditions": "replicon cells, 3 days at 37° C., luciferase activity, read-out: EC50"}}, "note": "Read-outs that look alike come from different tables or passages of the source."}
{"molecule": "CNc1ncnn2c([C@@H]3O[C@H](COP(=O)(OCCSC(=O)C(C)(C)C)OCCSC(=O)C(C)(C)C)[C@@H](O)[C@@]3(C)O)cnc12", "note": "[Compound 18]", "values": [{"measurement": "EC50", "setting": "HCV replicon cells", "result": "< 10", "unit": "µM"}]}
{"molecule": "CNc1ncnn2c([C@@H]3O[C@H](CO)[C@@H](O)[C@@]3(C)O)cnc12", "note": "[Compound 17]", "values": [{"measurement": "EC50", "setting": "HCV replicon cells; [1]", "result": "< 10", "unit": "µM"}]}
{"molecule": "CC(C)OC(=O)[C@H](C)NP(=O)(OC[C@H]1O[C@@H](c2nnc3c(=O)[nH]c(N)nn23)[C@](C)(O)[C@@H]1O)Oc1ccc(Cl)cc1", "note": "(stereo partly drawn) [Compound 9]", "values": [{"measurement": "EC50", "setting": "HCV replicon cells", "result": "< 250", "unit": "µM"}]}
{"molecule": "C[C@@]1(O)[C@H](O)[C@@H](CO)O[C@H]1c1cnc2c(N)nc(N)nn12", "note": "[Compound 3]", "values": [{"measurement": "EC50", "setting": "HCV replicon cells; [1]", "result": "< 250", "unit": "µM"}]}
{"molecule": "(2S,3R,4R,5 R)-2-(4-aminoimidazo[1,2-f][1,2,4]triazin-7-yl)-5-(hydroxymethyl)-3-methyl-tetrahydrofuran-3,4-diol [Compound 1]", "values": [{"measurement": "IC50", "setting": "HCV Δ21 NS5b polymerase", "result": "< 10", "unit": "µM"}]}
{"molecule": "C[C@@]1(O)[C@H](O)[C@@H](CO)O[C@H]1c1cnc2c(N)ncnn12", "note": "[Compound 1, (2S,3R,4R,5 R)-2-(4-aminoimidazo[1,2-f][1,2,4]triazin-7-yl)-5-(hydroxymethyl)-3-methyl-tetrahydrofuran-3,4-diol]", "values": [{"measurement": "EC50", "setting": "HCV replicon cells; [1]", "result": "< 10", "unit": "µM"}]}
